According to patent US8263606B2 (Xenon Pharmaceuticals Inc., priority 2008, dated 2012):

Columns and labels:
sodium channel = assay: Guanidine influx assay (14C-guanidine radiotracer flux, in vitro); type: cell-based, human or rat; details: guanidine influx assay using a known cell line that expresses a sodium channel
Procedure, shortened: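 Sodium channel block is measured as reduced 14C-guanidine uptake in cells stably expressing human or rat channels, stimulated with aconitine. Potency is given as IC50 from a four-parameter curve.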

CYP3A4 = CYP3A4 (Homo sapiens, UniProt P08684); assay: Cytochrome P450 (CYP450) Inhibition Assay, CYP3A4 (Vivid fluorescence, BOMCC substrate); details: human, P450 Baculosomes (recombinant CYP3A4), probe BOMCC (Vivid substrate)
Chain of CYP3A4 (P08684 whole entry): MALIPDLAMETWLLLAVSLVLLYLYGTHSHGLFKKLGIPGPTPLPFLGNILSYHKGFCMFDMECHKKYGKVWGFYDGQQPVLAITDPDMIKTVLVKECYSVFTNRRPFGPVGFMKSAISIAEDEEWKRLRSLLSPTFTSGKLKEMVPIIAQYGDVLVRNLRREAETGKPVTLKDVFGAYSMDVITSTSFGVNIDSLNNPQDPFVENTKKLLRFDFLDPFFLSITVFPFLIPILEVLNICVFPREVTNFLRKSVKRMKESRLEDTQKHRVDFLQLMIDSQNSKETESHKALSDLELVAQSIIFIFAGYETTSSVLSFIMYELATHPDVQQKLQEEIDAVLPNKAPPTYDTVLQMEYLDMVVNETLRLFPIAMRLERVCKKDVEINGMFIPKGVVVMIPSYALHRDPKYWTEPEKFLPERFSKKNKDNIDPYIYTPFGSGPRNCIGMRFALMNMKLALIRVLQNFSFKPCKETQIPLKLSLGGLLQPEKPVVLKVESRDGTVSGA

| SMILES | IC50 (sodium channel) | inhibition at 10 µM (CYP3A4) |
| --- | --- | --- |
| O=C(O)c1ccccc1CN1C(=O)C2(COc3cc4c(cc32)CCO4)c2ccccc21 (stereo not drawn) [Example 11.30, 2-[(2′-oxo-5,6-dihydrospiro[benzo[1,2-b:5,4-b′]difuran-3,3′-indol]-1′(2′H)-yl)methyl]benzoic acid] | 1000 to 10000 nM | < 50% |
| CN(C)Cc1cccc2c1C1(COc3cc4c(cc31)CCO4)C(=O)N2C[C@H]1CCCO1 (stereo partly drawn) [Example 11.37, 4′-[(dimethylamino)methyl]-1′-[(2R)-tetrahydrofuran-2-ylmethyl]-5,6-dihydrospiro[benzo[1,2-b:5,4-b′]difuran-3,3′-indol]-2′(1′H)-one] | 1000 to 10000 nM | < 50% |
| O=C1N(C[C@H]2CCCO2)c2cccc(CN3CCCC3)c2C12COc1cc3c(cc12)CCO3 (stereo partly drawn) [Example 11.38, 4′-(pyrrolidin-1-ylmethyl)-1′-[(2R)-tetrahydrofuran-2-ylmethyl]-5,6-dihydrospiro[benzo[1,2-b:5,4-b′]difuran-3,3′-indol]-2′(1′H)-one] | 1000 to 10000 nM | < 50% |
| CC(C)N1CCOC(CN2C(=O)C3(COc4cc5c(cc43)CCO5)c3ccccc32)C1 (stereo not drawn) [Example 11.42, 1′-{[4-(1-methylethyl)morpholin-2-yl]methyl}-5,6-dihydrospiro[benzo[1,2-b:5,4-b′]difuran-3,3′-indol]-2′(1′H)-one] | 1000 to 10000 nM | > 50% |
| O=C1N(Cc2ccc(-c3nnn[nH]3)cc2)c2ccccc2C12COc1cc3c(cc12)CCO3 (stereo not drawn) [Example 11.44, 1′-[4-(1H-tetrazol-5-yl)benzyl]-5,6-dihydrospiro[benzo[1,2-b:5,4-b′]difuran-3,3′-indol]-2′(1′H)-one] | 1000 to 10000 nM | > 50% |
| CS(=O)(=O)Nc1ccc2c(c1)OCC21C(=O)N(C[C@H]2CCCO2)c2ccccc21 (stereo partly drawn) [Example 11.48, N-{2′-oxo-1′-[(2R)-tetrahydrofuran-2-ylmethyl]-1′,2′-dihydrospiro[1-benzofuran-3,3′-indol]-6-yl}methanesulfonamide] | 1000 to 10000 nM | < 50% |

Other lines, results leading:

| IC50 (sodium channel) | inhibition at 10 µM (CYP3A4) | SMILES |
| --- | --- | --- |
| 100 to 1000 nM | > 50% | O=C1N(Cc2ccc(-c3cccnc3)cc2)c2ccccc2C12COc1cc3c(cc12)CCO3 (stereo not drawn) [Example 11.16, 1′-(4-pyridin-3-ylbenzyl)-5,6-dihydrospiro[benzo[1,2-b:5,4-b′]difuran-3,3′-indol]-2′(1′H)-one] |
| 100 to 1000 nM | < 50% | O=C1N(Cc2ccc(-c3ccccc3F)cc2)c2ccccc2C12COc1cc3c(cc12)CCO3 (stereo not drawn) [Example 11.17, 1′-[(2′-fluorobiphenyl-4-yl)methyl]-5,6-dihydrospiro[benzo[1,2-b:5,4-b′]difuran-3,3′-indol]-2′(1′H)-one] |
| 100 to 1000 nM | < 50% | O=C(O)c1ccc(CN2C(=O)C3(COc4cc5c(cc43)CCO5)c3ccccc32)cc1 (stereo not drawn) [Example 11.31, 4-[(2′-oxo-5,6-dihydrospiro[benzo[1,2-b:5,4-b′]difuran-3,3′-indol]-1′(2′H)-yl)methyl]benzoic acid] |
| 100 to 1000 nM | < 50% | N#Cc1cccc2c1C1(COc3cc4c(cc31)CCO4)C(=O)N2C[C@H]1CCCO1 (stereo partly drawn) [Example 11.35, 2′-oxo-1′-[(2R)-tetrahydrofuran-2-ylmethyl]-1′,2′,5,6-tetrahydrospiro[benzo[1,2-b:5,4-b′]difuran-3,3′-indole]-4′-carbonitrile] |
| 100 to 1000 nM | > 50% | CN1CCOC(CN2C(=O)C3(COc4cc5c(cc43)CCO5)c3ccccc32)C1 (stereo not drawn) [Example 11.41, 1′-[(4-methylmorpholin-2-yl)methyl]-5,6-dihydrospiro[benzo[1,2-b:5,4-b′]difuran-3,3′-indol]-2′(1′H)-one] |
| 100 to 1000 nM | > 50% | O=C1N(Cc2ccc(N3CCOCC3)cc2)c2ccccc2C12COc1cc3c(cc12)CCO3 (stereo not drawn) [Example 11.46, t-(4-morpholin-4-ylbenzyl)-5,6-dihydrospiro[benzo[1,2-b:5,4-b′]difuran-3,3′-indol]-2′(1′H)-one] |
